Test results published in PubChem BioAssay (NCI).
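Following 48 hours of exposure in 96-well plates, responses at five concentrations were used to interpolate endpoints linearly. TGI: total growth inhibition.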

Assays:
Assay in all cases: DTP human tumour cell line panel, 48 h
786-0 renal = tested on: 786-0 renal
A498 renal = tested on: A498 renal
A549 NSCLC = tested on: A549 NSCLC
ACHN renal = tested on: ACHN renal
BT-549 breast = tested on: BT-549 breast
CAKI-1 renal = tested on: CAKI-1 renal
CCRF-CEM leukemia = tested on: CCRF-CEM leukemia
COLO 205 colon = tested on: COLO 205 colon
DU-145 prostate = tested on: DU-145 prostate
EKVX NSCLC = tested on: EKVX NSCLC
HCC-2998 colon = tested on: HCC-2998 colon
HCT-116 colon = tested on: HCT-116 colon
HCT-15 colon = tested on: HCT-15 colon
HL-60(TB) leukemia = tested on: HL-60(TB) leukemia
HOP-62 NSCLC = tested on: HOP-62 NSCLC
HOP-92 NSCLC = tested on: HOP-92 NSCLC
HS 578T breast = tested on: HS 578T breast
HT29 colon = tested on: HT29 colon
IGROV1 ovarian = tested on: IGROV1 ovarian
K-562 leukemia = tested on: K-562 leukemia
KM12 colon = tested on: KM12 colon
LOX IMVI melanoma = tested on: LOX IMVI melanoma
M14 melanoma = tested on: M14 melanoma
MALME-3M melanoma = tested on: MALME-3M melanoma
MCF7 breast = tested on: MCF7 breast
MDA-MB-231 breast = tested on: MDA-MB-231 breast
MDA-MB-435 = tested on: MDA-MB-435
MDA-N = tested on: MDA-N
MOLT-4 leukemia = tested on: MOLT-4 leukemia
NCI-H226 lung = tested on: NCI-H226 lung
NCI-H23 lung = tested on: NCI-H23 lung
NCI-H460 lung = tested on: NCI-H460 lung
NCI-H522 lung = tested on: NCI-H522 lung
NCI/ADR-RES ovarian = tested on: NCI/ADR-RES ovarian
OVCAR-3 ovarian = tested on: OVCAR-3 ovarian
OVCAR-4 ovarian = tested on: OVCAR-4 ovarian
OVCAR-5 ovarian = tested on: OVCAR-5 ovarian
OVCAR-8 ovarian = tested on: OVCAR-8 ovarian
PC-3 prostate = tested on: PC-3 prostate
RPMI-8226 leukemia = tested on: RPMI-8226 leukemia
RXF 393 renal = tested on: RXF 393 renal
SF-268 CNS = tested on: SF-268 CNS
SF-295 CNS = tested on: SF-295 CNS
SF-539 CNS = tested on: SF-539 CNS
SK-MEL-2 melanoma = tested on: SK-MEL-2 melanoma
SK-MEL-28 melanoma = tested on: SK-MEL-28 melanoma
SK-MEL-5 melanoma = tested on: SK-MEL-5 melanoma
SK-OV-3 ovarian = tested on: SK-OV-3 ovarian
SN12C renal = tested on: SN12C renal
SNB-19 CNS = tested on: SNB-19 CNS
SNB-75 CNS = tested on: SNB-75 CNS
SR leukemia = tested on: SR leukemia
SW-620 colon = tested on: SW-620 colon
T-47D breast = tested on: T-47D breast
TK-10 renal = tested on: TK-10 renal
U251 CNS = tested on: U251 CNS
UACC-257 melanoma = tested on: UACC-257 melanoma
UACC-62 melanoma = tested on: UACC-62 melanoma
UO-31 renal = tested on: UO-31 renal

COc1ccc2nc3ccc(OC)cc3c(SCc3ccccc3)c2c1
TGI (786-0 renal): > 100 µM
TGI (A498 renal): > 100 µM
TGI (A549 NSCLC): > 100 µM
TGI (ACHN renal): > 100 µM
TGI (BT-549 breast): > 100 µM
TGI (CAKI-1 renal): > 100 µM
TGI (CCRF-CEM leukemia): > 94.1 µM
TGI (COLO 205 colon): > 100 µM
TGI (DU-145 prostate): > 100 µM
TGI (EKVX NSCLC): > 100 µM
TGI (HCC-2998 colon): > 100 µM
TGI (HCT-116 colon): > 100 µM
TGI (HCT-15 colon): > 100 µM
TGI (HL-60(TB) leukemia): > 100 µM
TGI (HOP-62 NSCLC): > 100 µM
TGI (HOP-92 NSCLC): > 100 µM
TGI (HS 578T breast): > 100 µM
TGI (HT29 colon): > 100 µM
TGI (IGROV1 ovarian): > 100 µM
TGI (K-562 leukemia): > 100 µM
TGI (KM12 colon): > 100 µM
TGI (LOX IMVI melanoma): > 100 µM
TGI (M14 melanoma): > 50 µM
TGI (MALME-3M melanoma): > 100 µM
TGI (MCF7 breast): > 100 µM
TGI (MDA-MB-231 breast): > 100 µM
TGI (MDA-MB-435): > 100 µM
TGI (MDA-N): > 26.3 µM
TGI (MOLT-4 leukemia): > 83.2 µM
TGI (NCI-H226 lung): > 100 µM
TGI (NCI-H23 lung): > 100 µM
TGI (NCI-H460 lung): > 100 µM
TGI (NCI-H522 lung): > 100 µM
TGI (NCI/ADR-RES ovarian): > 100 µM
TGI (OVCAR-3 ovarian): > 100 µM
TGI (OVCAR-4 ovarian): > 100 µM
TGI (OVCAR-5 ovarian): > 100 µM
TGI (OVCAR-8 ovarian): > 100 µM
TGI (PC-3 prostate): > 100 µM
TGI (RPMI-8226 leukemia): > 100 µM
TGI (RXF 393 renal): > 100 µM
TGI (SF-268 CNS): > 100 µM
TGI (SF-295 CNS): > 100 µM
TGI (SF-539 CNS): > 100 µM
TGI (SK-MEL-2 melanoma): > 100 µM
TGI (SK-MEL-28 melanoma): > 100 µM
TGI (SK-MEL-5 melanoma): > 100 µM
TGI (SK-OV-3 ovarian): > 100 µM
TGI (SN12C renal): > 100 µM
TGI (SNB-19 CNS): > 100 µM
TGI (SNB-75 CNS): > 100 µM
TGI (SR leukemia): > 100 µM
TGI (SW-620 colon): > 100 µM
TGI (T-47D breast): > 100 µM
TGI (TK-10 renal): > 100 µM
TGI (U251 CNS): > 100 µM
TGI (UACC-257 melanoma): > 100 µM
TGI (UACC-62 melanoma): > 100 µM
TGI (UO-31 renal): > 35.7 µM

CC(C)Cc1cc2c(cc1O)CCC1C2CC[C@@]2(C)C1CC[C@@H]2O (some centres not stated)
TGI (786-0 renal): 23.6 µM
TGI (A498 renal): 35.5 µM
TGI (A549 NSCLC): 21.4 µM
TGI (ACHN renal): 20 µM
TGI (BT-549 breast): 14.2 µM
TGI (CAKI-1 renal): 35.6 µM
TGI (CCRF-CEM leukemia): 27.1 µM
TGI (COLO 205 colon): 28.9 µM
TGI (DU-145 prostate): 23.1 µM
TGI (EKVX NSCLC): 26.3 µM
TGI (HCC-2998 colon): 36.1 µM
TGI (HCT-116 colon): 16.2 µM
TGI (HCT-15 colon): 21.7 µM
TGI (HL-60(TB) leukemia): 8 µM
TGI (HOP-62 NSCLC): 33.1 µM
TGI (HOP-92 NSCLC): 26.6 µM
TGI (HS 578T breast): 23.7 µM
TGI (HT29 colon): 21.6 µM
TGI (IGROV1 ovarian): 33.1 µM
TGI (K-562 leukemia): 19.6 µM
TGI (KM12 colon): 17.4 µM
TGI (LOX IMVI melanoma): 18.2 µM
TGI (M14 melanoma): 19.3 µM
TGI (MALME-3M melanoma): 37 µM
TGI (MCF7 breast): 25.9 µM
TGI (MDA-MB-231 breast): 20 µM
TGI (MDA-MB-435): 27.8 µM
TGI (MDA-N): 19.7 µM
TGI (MOLT-4 leukemia): 17.2 µM
TGI (NCI-H226 lung): 14.2 µM
TGI (NCI-H23 lung): 26.4 µM
TGI (NCI-H460 lung): 25.5 µM
TGI (NCI-H522 lung): 26 µM
TGI (NCI/ADR-RES ovarian): 20.9 µM
TGI (OVCAR-3 ovarian): 16.6 µM
TGI (OVCAR-4 ovarian): 24.3 µM
TGI (OVCAR-5 ovarian): 34.2 µM
TGI (OVCAR-8 ovarian): 22.3 µM
TGI (PC-3 prostate): 21 µM
TGI (RPMI-8226 leukemia): 20.4 µM
TGI (RXF 393 renal): 16.3 µM
TGI (SF-268 CNS): 39.4 µM
TGI (SF-295 CNS): 20.2 µM
TGI (SF-539 CNS): 40.6 µM
TGI (SK-MEL-2 melanoma): 15.7 µM
TGI (SK-MEL-28 melanoma): 28.8 µM
TGI (SK-MEL-5 melanoma): 20.3 µM
TGI (SK-OV-3 ovarian): 24.3 µM
TGI (SN12C renal): 21.9 µM
TGI (SNB-19 CNS): 21.1 µM
TGI (SNB-75 CNS): 33.3 µM
TGI (SR leukemia): 19.8 µM
TGI (SW-620 colon): 25.4 µM
TGI (T-47D breast): 23.4 µM
TGI (TK-10 renal): 23.1 µM
TGI (U251 CNS): 27 µM
TGI (UACC-257 melanoma): 35.1 µM
TGI (UACC-62 melanoma): 21.2 µM
TGI (UO-31 renal): 13.4 µM

C[C@@H](NC(=O)c1ccc(CNC(=O)/C=C/c2cccc(Oc3ccccc3)c2)cc1)c1ccccc1
TGI (786-0 renal): 35.4 µM
TGI (A498 renal): > 90.4 µM
TGI (A549 NSCLC): > 57.8 µM
TGI (ACHN renal): 36 µM
TGI (BT-549 breast): > 100 µM
TGI (CAKI-1 renal): 44.2 µM
TGI (CCRF-CEM leukemia): > 100 µM
TGI (COLO 205 colon): > 100 µM
TGI (DU-145 prostate): > 100 µM
TGI (EKVX NSCLC): > 65.8 µM
TGI (HCC-2998 colon): > 100 µM
TGI (HCT-116 colon): > 100 µM
TGI (HCT-15 colon): > 100 µM
TGI (HL-60(TB) leukemia): > 100 µM
TGI (HOP-62 NSCLC): > 61.7 µM
TGI (HOP-92 NSCLC): > 100 µM
TGI (HS 578T breast): 33.4 µM
TGI (HT29 colon): > 100 µM
TGI (IGROV1 ovarian): > 100 µM
TGI (K-562 leukemia): > 100 µM
TGI (KM12 colon): > 100 µM
TGI (LOX IMVI melanoma): > 100 µM
TGI (M14 melanoma): > 100 µM
TGI (MALME-3M melanoma): > 100 µM
TGI (MCF7 breast): > 100 µM
TGI (MDA-MB-231 breast): > 100 µM
TGI (MDA-MB-435): > 100 µM
TGI (MDA-N): > 100 µM
TGI (MOLT-4 leukemia): > 100 µM
TGI (NCI-H226 lung): > 73.5 µM
TGI (NCI-H23 lung): > 100 µM
TGI (NCI-H460 lung): > 100 µM
TGI (NCI-H522 lung): > 100 µM
TGI (NCI/ADR-RES ovarian): > 100 µM
TGI (OVCAR-3 ovarian): > 100 µM
TGI (OVCAR-4 ovarian): > 100 µM
TGI (OVCAR-5 ovarian): > 100 µM
TGI (OVCAR-8 ovarian): > 100 µM
TGI (PC-3 prostate): > 100 µM
TGI (RPMI-8226 leukemia): > 100 µM
TGI (RXF 393 renal): 12.2 µM
TGI (SF-268 CNS): 78 µM
TGI (SF-295 CNS): > 100 µM
TGI (SF-539 CNS): 30.6 µM
TGI (SK-MEL-2 melanoma): > 100 µM
TGI (SK-MEL-28 melanoma): > 100 µM
TGI (SK-MEL-5 melanoma): > 100 µM
TGI (SK-OV-3 ovarian): > 100 µM
TGI (SN12C renal): > 100 µM
TGI (SNB-19 CNS): > 52.2 µM
TGI (SNB-75 CNS): 20.1 µM
TGI (SR leukemia): > 100 µM
TGI (SW-620 colon): > 100 µM
TGI (T-47D breast): > 100 µM
TGI (TK-10 renal): > 89.2 µM
TGI (U251 CNS): > 100 µM
TGI (UACC-257 melanoma): > 100 µM
TGI (UACC-62 melanoma): > 100 µM
TGI (UO-31 renal): 27.5 µM
